The supplement of paper PMC10307832

Key:
Assay in all cases: relative viability (nuclei count vs DMSO), 5 days (fraction); higher = more cells survive
[1] = tested on: RERF-LC-KJ
How it was run: (§1)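 Five library-drug doses in √10 steps were combined with a fixed anchor-drug dose, or a single drug was given alone, by pin tool to lung cancer cell lines in 1536-well plates the day after seeding. Nuclei were stained and counted after 5 days. Relative viability is the nuclei count in treated wells over that in vehicle wells, taken as the median of duplicate plates.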

[2] = tested on: HCC-827
How it was run: as §1

[3] = tested on: EKVX
How it was run: as §1

[4] = tested on: LU99A
How it was run: as §1

[5] = tested on: NCI-H2126
How it was run: as §1

[6] = tested on: LCLC-103H
How it was run: as §1

[7] = tested on: SW 1573
How it was run: as §1

[8] = tested on: ChaGo-K-1
How it was run: as §1

[9] = tested on: LK-2
How it was run: as §1

[10] = tested on: NCI-H1666
How it was run: as §1

[11] = tested on: NCI-H1975
How it was run: as §1

[12] = tested on: SW 900
How it was run: as §1

[13] = tested on: PC-14
How it was run: as §1

[14] = tested on: NCI-H2405
How it was run: as §1

[15] = tested on: EMC-BAC-2
How it was run: as §1

[16] = tested on: EPLC-272H
How it was run: as §1

[17] = tested on: SK-LU-1
How it was run: as §1

[18] = tested on: HCC-78
How it was run: as §1

[19] = tested on: NCI-H23
How it was run: as §1

[20] = tested on: NCI-H322M
How it was run: as §1

[21] = tested on: NCI-H2342
How it was run: as §1

Structure (SMILES): Cc1sc2c(c1C)C(c1ccc(Cl)cc1)=N[C@@H](CC(=O)OC(C)(C)C)c1nnc(C)n1-2 [JQ1] + CC(=O)Nc1cccc(-n2c(=O)n(C3CC3)c(=O)c3c(Nc4ccc(I)cc4F)n(C)c(=O)c(C)c32)c1 [Trametinib] (partner 0.02 µM)
- relative viability ([1]; first compound 0.04 µM): 0.907
- relative viability ([1]; first compound 0.1265 µM): 0.803
- relative viability ([1]; first compound 0.4 µM): 0.817
- relative viability ([1]; first compound 1.265 µM): 0.532
- relative viability ([1]; first compound 4 µM): 0.449
- relative viability ([2]; first compound 0.04 µM): 0.562
- relative viability ([2]; first compound 0.1265 µM): 0.519
- relative viability ([2]; first compound 1.265 µM): 0.543
- relative viability ([2]; first compound 4 µM): 0.474
- relative viability ([3]; first compound 0.04 µM): 0.286
- relative viability ([3]; first compound 0.1265 µM): 0.38
- relative viability ([3]; first compound 0.4 µM): 0.366
- relative viability ([3]; first compound 1.265 µM): 0.432
- relative viability ([3]; first compound 4 µM): 0.271
- relative viability ([4]; first compound 0.04 µM): 0.544
- relative viability ([4]; first compound 0.4 µM): 0.335
- relative viability ([4]; first compound 1.265 µM): 0.209
- relative viability ([4]; first compound 4 µM): 0.194
- relative viability ([5]; first compound 0.04 µM): 0.521
- relative viability ([5]; first compound 0.1265 µM): 0.549
- relative viability ([5]; first compound 0.4 µM): 0.486
- relative viability ([5]; first compound 1.265 µM): 0.368
- relative viability ([5]; first compound 4 µM): 0.416
- relative viability ([6]; first compound 0.04 µM): 0.642
- relative viability ([6]; first compound 0.1265 µM): 0.613
- relative viability ([6]; first compound 0.4 µM): 0.534
- relative viability ([6]; first compound 1.265 µM): 0.477
- relative viability ([6]; first compound 4 µM): 0.426
- relative viability ([7]; first compound 0.04 µM): 0.422
- relative viability ([7]; first compound 0.1265 µM): 0.357
- relative viability ([7]; first compound 0.4 µM): 0.277
- relative viability ([7]; first compound 1.265 µM): 0.189
- relative viability ([7]; first compound 4 µM): 0.187
- relative viability ([8]; first compound 0.04 µM): 0.943
- relative viability ([8]; first compound 0.1265 µM): 0.928
- relative viability ([8]; first compound 0.4 µM): 0.797
- relative viability ([8]; first compound 1.265 µM): 0.641
- relative viability ([8]; first compound 4 µM): 0.483
- relative viability ([9]; first compound 0.04 µM): 0.71
- relative viability ([9]; first compound 0.1265 µM): 0.579
- relative viability ([9]; first compound 0.4 µM): 0.217
- relative viability ([9]; first compound 1.265 µM): 0.163
- relative viability ([9]; first compound 4 µM): 0.218
- relative viability ([10]; first compound 0.04 µM): 0.92
- relative viability ([10]; first compound 0.1265 µM): 0.874
- relative viability ([10]; first compound 0.4 µM): 0.847
- relative viability ([10]; first compound 1.265 µM): 0.641
- relative viability ([10]; first compound 4 µM): 0.757
- relative viability ([11]; first compound 0.04 µM): 0.342
- relative viability ([11]; first compound 0.1265 µM): 0.27
- relative viability ([11]; first compound 0.4 µM): 0.244
- relative viability ([11]; first compound 1.265 µM): 0.217
- relative viability ([11]; first compound 4 µM): 0.198
- relative viability ([12]; first compound 0.04 µM): 0.804
- relative viability ([12]; first compound 0.1265 µM): 0.582
- relative viability ([12]; first compound 0.4 µM): 0.532
- relative viability ([12]; first compound 1.265 µM): 0.205
- relative viability ([12]; first compound 4 µM): 0.204
- relative viability ([13]; first compound 0.04 µM): 0.862
- relative viability ([13]; first compound 0.1265 µM): 0.174
- relative viability ([13]; first compound 0.4 µM): 0.515
- relative viability ([13]; first compound 1.265 µM): 0.26
- relative viability ([13]; first compound 4 µM): 0.182
- relative viability ([14]; first compound 0.04 µM): 0.627
- relative viability ([14]; first compound 0.4 µM): 0.601
- relative viability ([14]; first compound 1.265 µM): 0.422
- relative viability ([14]; first compound 4 µM): 0.332
- relative viability ([15]; first compound 0.04 µM): 0.935
- relative viability ([15]; first compound 0.4 µM): 0.881
- relative viability ([15]; first compound 1.265 µM): 0.586
- relative viability ([15]; first compound 4 µM): 0.366
- relative viability ([16]; first compound 0.04 µM): 0.278
- relative viability ([16]; first compound 0.1265 µM): 0.252
- relative viability ([16]; first compound 0.4 µM): 0.273
- relative viability ([16]; first compound 1.265 µM): 0.254
- relative viability ([16]; first compound 4 µM): 0.215
- relative viability ([17]; first compound 0.04 µM): 0.509
- relative viability ([17]; first compound 0.1265 µM): 0.444
- relative viability ([17]; first compound 0.4 µM): 0.434
- relative viability ([17]; first compound 1.265 µM): 0.359
- relative viability ([17]; first compound 4 µM): 0.195
- relative viability ([18]; first compound 0.04 µM): 0.791
- relative viability ([18]; first compound 0.1265 µM): 0.603
- relative viability ([18]; first compound 0.4 µM): 0.572
- relative viability ([18]; first compound 1.265 µM): 0.462
- relative viability ([18]; first compound 4 µM): 0.367
- relative viability ([19]; first compound 0.04 µM): 0.348
- relative viability ([19]; first compound 0.1265 µM): 0.268
- relative viability ([19]; first compound 0.4 µM): 0.256
- relative viability ([19]; first compound 1.265 µM): 0.201
- relative viability ([19]; first compound 4 µM): 0.173
- relative viability ([20]; first compound 0.04 µM): 0.555
- relative viability ([20]; first compound 0.1265 µM): 0.644
- relative viability ([20]; first compound 0.4 µM): 0.45
- relative viability ([20]; first compound 1.265 µM): 0.334
- relative viability ([20]; first compound 4 µM): 0.539
- relative viability ([21]; first compound 0.04 µM): 0.782
- relative viability ([21]; first compound 0.1265 µM): 0.8
- relative viability ([21]; first compound 0.4 µM): 0.905
- relative viability ([21]; first compound 1.265 µM): 0.803
- relative viability ([21]; first compound 4 µM): 0.672
